Earlier results on one substance are cited in patent publication US20030134332A1, “Diagnosis of endothelial dysfunction by nitric oxide bioactivity index” (priority 2001, published 2003).

Series [1] relates to wound healing in diabetic mice.
In series [2] the test system is plasma isoprostane (oxidant stress marker). As to conditions: diabetic men, 600 mg twice daily for seven days.

In the case of “2-(2,3-dihydro-5-acetoxy-4,6,7-trimethylbenzofuranyl) acetic acid [raxofelast]”, in series [1], the “effect on wound healing” value is listed as “stimulates wound healing”. Besides, in series [2], the “fall of plasma isoprostane levels in diabetics” value was 50%.
